Earlier results as cited in patent US20220265733A1, “COMPOSITIONS COMPRISING BACTERIAL STRAINS” (4D Pharma Research Limited, priority 2019, published 2022).

Tests used:
DSS-colitis murine model = details: reference [70]
class I HDAC = details: reference [70]

Compound: CCCC(CCC)C(=O)O [valproic acid]
- colitis (DSS-colitis murine model): amelioration
- HDAC inhibition (class I HDAC): associated with class I HDAC inhibition
